Literature values, collected in patent US10352931B2 (priority 2013, dated 2019).

Target: glutamate carboxypeptidase II (Homo sapiens, UniProt Q04609)
Conditions: examples of inhibitors, Table 1

glutamate carboxypeptidase II, sequence (Q04609 whole entry, species assumed): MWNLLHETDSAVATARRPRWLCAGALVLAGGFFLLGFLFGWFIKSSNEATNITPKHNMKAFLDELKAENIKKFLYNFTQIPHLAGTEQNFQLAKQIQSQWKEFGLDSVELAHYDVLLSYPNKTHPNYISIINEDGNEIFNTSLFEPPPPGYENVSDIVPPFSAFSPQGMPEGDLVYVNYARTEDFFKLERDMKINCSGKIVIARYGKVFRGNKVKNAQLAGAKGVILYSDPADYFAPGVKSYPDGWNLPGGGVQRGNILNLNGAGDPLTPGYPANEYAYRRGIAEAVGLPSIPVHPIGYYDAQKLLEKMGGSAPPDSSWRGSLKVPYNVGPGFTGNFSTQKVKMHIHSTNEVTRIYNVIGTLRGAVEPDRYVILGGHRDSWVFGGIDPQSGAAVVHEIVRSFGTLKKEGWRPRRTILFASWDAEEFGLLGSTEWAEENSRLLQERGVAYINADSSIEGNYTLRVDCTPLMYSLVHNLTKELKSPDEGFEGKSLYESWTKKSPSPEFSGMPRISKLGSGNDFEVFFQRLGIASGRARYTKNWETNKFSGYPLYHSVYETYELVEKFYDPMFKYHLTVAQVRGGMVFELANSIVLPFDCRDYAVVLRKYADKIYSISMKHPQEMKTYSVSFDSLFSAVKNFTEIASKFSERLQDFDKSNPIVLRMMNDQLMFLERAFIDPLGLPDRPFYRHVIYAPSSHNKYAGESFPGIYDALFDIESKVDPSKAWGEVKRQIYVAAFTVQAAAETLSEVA

(S)-2-(hydroxypentafluorophenylmethyl-phosphinoylmethyl)pentanedioic acid
IC50: 34 nM
